≈ marks a conversion by molar mass, not a printed value. Entries after “also recorded” stand apart in the source; their conditions may differ.
Experiments:
[1] = tested on: T1, MAO-B; test: Inhibitor reversibility analysis by dialysis; format: biochemical, human; conditions: for MAO-B activity recovered after dialysis: ~2× IC50, dialyzed; for MAO-B activity before dialysis (undialyzed): ~2× IC50, undialyzed
T1 construct: purchased Sigma-Aldrich

[2] = target: T2, electric eel AChE (Electrophorus electricus, UniProt O42275); test: biochemical
T2 construct: purchased Sigma-Aldrich
Method: (§1) For cholinesterase activity assay, electric eel AChE and horse serum BChE were used. Activities were measured according to the Ellman method, with slight modifications, in 50 mM sodium phosphate buffer (pH 7.5). After adding cholinesterase enzymes and the inhibitor, pre-incubation was applied for 15 min. After adding 0.5 mM 5,5-dithiobis (2-nitrobenzoic acid) (DTNB) 0.5 mM for color development, 0.5 mM acetyl thiocholine iodide (ATCI) or 0.5 mM butyrylthiocholine iodide (BTCI) was used as a substrate.

[3] = target: T3, horse serum BChE (Equus caballus, UniProt P81908); test: biochemical
T3 construct: electric eel AChE and horse serum BChE were used; purchased Sigma-Aldrich; host or cells: horse serum
Method: as §1

[4] = tested on: HL-60 (human acute promyelocytic leukemia) cells; test: Cytotoxicity, CCK-8 assay, HL-60; format: cell-based; conditions: 50 µM, 24 h treatment, CCK-8 4 h
Method: (§2) Cell viability was determined according to the cell counting kit (CCK)-8 assay method, using MDCK (Madin–Darby canine kidney) and HL-60 (human acute promyelocytic leukemia) cells, as normal and cancer cells, respectively. Briefly, MDCK and HL-60 cells were resuspended in Dulbecco’s modified eagle medium (DMEM) and Roswell Park Memorial Institute (RPMI)-1640, respectively, at 1 × 10^5 and 3 × 10^5 cells/mL, respectively. The cell suspension (100 µL) was added to each well of the 96-well plate and was incubated for 24 h at 5% CO2 and 37 °C. After incubation, 100 µL of the medium supplemented with 1, 3, 10, 30, and 50 µM of the compound was added to each well and incubated again. After 24 h, 100 µL of the solution was removed from each well, and CCK-8 (10 µL/well) was dispensed. After 2~4 h, the absorbance was detected at 450 nm with a microplate reader (Versamax, Molecular Devices, CA, USA).

[5] = tested on: MDCK (Madin–Darby canine kidney) cells; test: Cytotoxicity, CCK-8 assay, MDCK; format: cell-based; conditions: 50 µM, 24 h treatment, CCK-8 3 h
Method: as §2

[6] = tested on: T4, BACE-1; test: BACE-1 activity assay (detection kit, fluorescence); format: biochemical; conditions: isolated compounds, residual activity at 10 µg/mL (footnote a)
T4 construct: purchased Sigma-Aldrich
Method: BACE-1 assay was carried out using the BACE-1 activity detection kit and a fluorescence spectrometer (FS-2, Scinco, Seoul, Korea) by an excitation at 320 nm and an emission at 405 nm, after the reaction for 2 h at 37 °C [24].

[7] = target: T5, Human recombinant MAO-A (Homo sapiens, UniProt P21397); test: MAO-A activity assay (kynuramine, 316 nm); format: biochemical
T5 construct: purchased Sigma-Aldrich
T5 sequence (P21397 1-527): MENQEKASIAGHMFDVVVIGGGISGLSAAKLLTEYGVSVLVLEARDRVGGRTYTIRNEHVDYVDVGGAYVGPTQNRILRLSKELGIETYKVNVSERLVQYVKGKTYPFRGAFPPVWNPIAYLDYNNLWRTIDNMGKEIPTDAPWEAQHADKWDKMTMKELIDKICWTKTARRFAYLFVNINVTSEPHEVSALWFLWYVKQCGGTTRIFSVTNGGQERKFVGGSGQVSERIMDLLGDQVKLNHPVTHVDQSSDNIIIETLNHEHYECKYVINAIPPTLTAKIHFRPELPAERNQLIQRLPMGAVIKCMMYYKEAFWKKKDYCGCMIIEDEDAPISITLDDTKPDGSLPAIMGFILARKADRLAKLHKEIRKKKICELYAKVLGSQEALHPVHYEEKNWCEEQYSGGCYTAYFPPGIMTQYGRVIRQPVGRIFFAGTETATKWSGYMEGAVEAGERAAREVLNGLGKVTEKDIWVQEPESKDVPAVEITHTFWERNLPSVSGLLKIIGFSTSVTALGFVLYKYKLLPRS
Method: (§3) Human recombinant MAO-A and MAO-B enzymes were used, and the activities were measured in a final volume of 500 µL of 100 mM sodium phosphate buffer of pH 7.2, and 0.06 mM kynuramine (MAO-A), or 0.3 mM benzylamine (MAO-B).
(§4) The inhibitory activities of the isolated compounds were analyzed at a concentration of 2 µg/mL.

[8] = target: T6, Human recombinant MAO-B (Homo sapiens, UniProt P27338); test: MAO-B activity assay (benzylamine, 250 nm); format: biochemical
T6 construct: purchased Sigma-Aldrich
T6 sequence (P27338 1-520): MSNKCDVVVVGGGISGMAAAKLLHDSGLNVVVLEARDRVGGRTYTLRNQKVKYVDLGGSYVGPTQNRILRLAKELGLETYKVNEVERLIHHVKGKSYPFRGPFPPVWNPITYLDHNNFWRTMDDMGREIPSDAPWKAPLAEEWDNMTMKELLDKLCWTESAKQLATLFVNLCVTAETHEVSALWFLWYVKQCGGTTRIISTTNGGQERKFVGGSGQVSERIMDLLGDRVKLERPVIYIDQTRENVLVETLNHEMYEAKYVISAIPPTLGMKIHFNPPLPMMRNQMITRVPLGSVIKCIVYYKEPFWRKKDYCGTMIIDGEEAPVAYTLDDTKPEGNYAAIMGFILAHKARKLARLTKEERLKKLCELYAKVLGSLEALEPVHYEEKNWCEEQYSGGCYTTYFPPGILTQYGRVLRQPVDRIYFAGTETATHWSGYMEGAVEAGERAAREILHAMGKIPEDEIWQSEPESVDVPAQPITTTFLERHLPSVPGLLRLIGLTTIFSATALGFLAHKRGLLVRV
Method: as §3, §4

[9] = DPPH antioxidant activity assay; conditions: isolated compounds, 100 µg/mL (footnote b)
Method: The antioxidant activity was measured at 100 µg/mL of the extracts using 0.1 mM 2,2-diphenyl-1-picrylhydrazyl (DPPH). After 15 min of pre-incubation, absorbance was measured at 517 nm.

[10] = tested on: liver or brain MAO; conditions: read-out: IC50 MAO enzyme; cited from earlier work
[11] = target: T1, MAO-B; conditions: co-crystallized ligand of PDB 4A79; reference not given; cited from earlier work
[12] = target: monoamine oxidase; parameters: method as in PMID 27520493; conditions: cited from earlier work

T3 sequence (P81908 whole entry): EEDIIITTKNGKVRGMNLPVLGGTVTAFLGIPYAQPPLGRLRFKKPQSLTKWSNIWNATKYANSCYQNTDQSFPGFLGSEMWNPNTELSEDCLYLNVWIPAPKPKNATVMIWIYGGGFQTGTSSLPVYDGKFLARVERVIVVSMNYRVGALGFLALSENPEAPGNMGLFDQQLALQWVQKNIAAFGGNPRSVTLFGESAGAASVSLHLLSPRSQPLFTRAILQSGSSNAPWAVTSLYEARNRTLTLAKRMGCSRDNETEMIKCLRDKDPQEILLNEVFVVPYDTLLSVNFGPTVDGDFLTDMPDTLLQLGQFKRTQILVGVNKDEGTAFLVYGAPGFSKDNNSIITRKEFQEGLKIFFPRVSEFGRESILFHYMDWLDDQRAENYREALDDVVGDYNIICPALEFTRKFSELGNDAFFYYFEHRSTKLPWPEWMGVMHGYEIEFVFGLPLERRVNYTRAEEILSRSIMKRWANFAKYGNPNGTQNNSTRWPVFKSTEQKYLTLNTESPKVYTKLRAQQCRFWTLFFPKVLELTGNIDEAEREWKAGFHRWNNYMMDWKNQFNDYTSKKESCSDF
T2 sequence (O42275 24-633): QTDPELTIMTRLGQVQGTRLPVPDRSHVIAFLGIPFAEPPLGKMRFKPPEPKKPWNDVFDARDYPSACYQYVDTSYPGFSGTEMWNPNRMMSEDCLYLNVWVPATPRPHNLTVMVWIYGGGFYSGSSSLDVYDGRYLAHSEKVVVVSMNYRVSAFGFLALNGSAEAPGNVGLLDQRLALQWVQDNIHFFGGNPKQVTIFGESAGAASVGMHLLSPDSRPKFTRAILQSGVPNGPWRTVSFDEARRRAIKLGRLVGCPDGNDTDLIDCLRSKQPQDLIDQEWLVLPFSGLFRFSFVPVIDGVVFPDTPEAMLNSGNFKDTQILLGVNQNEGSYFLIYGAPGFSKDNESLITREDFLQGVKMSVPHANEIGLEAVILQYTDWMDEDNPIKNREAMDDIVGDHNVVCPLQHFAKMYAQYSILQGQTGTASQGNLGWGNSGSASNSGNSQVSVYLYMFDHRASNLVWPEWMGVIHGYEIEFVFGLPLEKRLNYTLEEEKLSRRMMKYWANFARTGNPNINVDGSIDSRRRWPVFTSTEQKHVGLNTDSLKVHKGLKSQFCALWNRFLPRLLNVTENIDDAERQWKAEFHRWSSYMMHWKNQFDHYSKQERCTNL

CC1CC(=O)c2c(O)cccc2O1 (centres unmarked) [HMC, 5-hydroxy-2-methyl-chroman-4-one]
Reversibility of MAO-B inhibition ([1]; dialysis, ~2× IC50): reversible inhibitor
MAO-B activity recovered after dialysis [1]: 80.6%
MAO-B activity before dialysis (undialyzed) [1]: 23.1%
IC50 [2]: > 40 µM
remaining activity at 2 µg/mL ([2]; isolated compounds, 2 µg/mL, read-out: Residual Activity at 2 µg/mL (%) AChE): 73 ± 1.13%
IC50 [3]: > 40 µM
remaining activity at 2 µg/mL ([3]; isolated compounds, 2 µg/mL, read-out: Residual Activity at 2 µg/mL (%) BChE): 83.8 ± 5.89%
Cell viability, HL-60 [4]: No cytotoxicity; also recorded: not decreased at all
Cell viability, MDCK [5]: No cytotoxicity; also recorded: not decreased at all
Residual Activity (%) BACE-1 [6]: 98.6 ± 2.04%
IC50 [7]: 14 ± 2.07 µM
remaining activity at 2 µg/mL ([7]; isolated compounds, 2 µg/mL, read-out: Residual Activity at 2 µg/mL (%) MAO-A): 55.8 ± 0.91%
IC50 [8]: 3.23 ± 0.3 µM
Inhibition pattern (Lineweaver–Burk plots) ([8]; MAO-B): competitive inhibitor
remaining activity at 2 µg/mL ([8]; isolated compounds, 2 µg/mL, read-out: Residual Activity at 2 µg/mL (%) MAO-B): 13.2 ± 0.48%
Time-dependency: residual activities after preincubation ([8]; preincubation up to 30 min): not changed significantly
Selectivity for MAO-B compared to MAO-A ([8]; ratio of IC50 values): ~ 4 fold
Ki ([8]; secondary plot of Lineweaver–Burk slopes vs inhibitor concentration): 0.896 µM
% Inhibition DPPH [9]: 25.11 ± 2.12%

CCCCCC(=O)c1c(O)cc2c(c1O)C(=O)c1c(O)cc(OC)cc1C2=O [Solorinic acid]
IC50 [10]: 14.3 µM

NCCNC(=O)c1ccc(Cl)cn1 [Lazabemide, reference compound]
MAO-B activity recovered after dialysis [1]: 74.4%
MAO-B activity before dialysis (undialyzed) [1]: 26.0%

C#CCN(C)Cc1ccccc1 [Pargyline, reference compound]
MAO-B activity recovered after dialysis [1]: not recovered at all

CCc1ccc(CCOc2ccc(CC3SC(=O)NC3=O)cc2)nc1 (centres unmarked) [P1B, pioglitazone]
Ki [11]: 0.5 µM

CC1Cc2cccc(O)c2C(=O)O1 (centres unmarked) [mellein, Mellein]
IC50 [12]: 50.2 µM
IC50 monoamine oxidase [12]: 8.93 µg/mL (≈ 50.1 µM)
